From patent publication US6159735A, “Calcitonin/calcitonin gene related peptide enhancer element and associated DNA binding proteins” (University of Iowa Research Foundation, priority 1995, dated 2000)
pIC50, pKd: −log10 of the molar value. Like-named read-outs stand apart in the source and are kept apart here. Blank lines part the entries; values can stand above or below the compound they belong to.

Legend:
CT/CGRP enhancer [1] = assay: CT/CGRP promoter/enhancer luciferase reporter transfection assay in CA77 cells; format: cell-based, rat
CT/CGRP enhancer [2] = assay: CT/CGRP promoter/enhancer luciferase reporter transfection assay in HeLa cells; format: cell-based, human
[3] = system: retinoic acid responsive element from the β-retinoic acid receptor gene (RARE-TK-luc); assay: cells; details: Rattus norvegicus
Method: In the retinoic acid experiments, the cells were treated essentially as above except that an apparently critical parameter for retinoic acid inhibition was that the CA77 cells could not be aggregated into clumps. […] About 4-5×10^6 cells in 0.8 ml were transfected with supercoiled DNA by electroporation using a Biorad Gene Pulser apparatus at 200 volts for the CA77 cells, 220 volts for the HeLa cells, and 260 volts for the 44-2C cells, all with a capacitance of 960 microfarads. The same amount of DNA (20 μg) was used per cuvette unless otherwise indicated. For the α-RXR cotransfection assays, 10 μg 18 bp CT/CGRP-TK-luc plasmid, 18 μg RSV-α-RAR plasmid, or 2 μg β-actin-RXR plasmid (brought to 30 μg total DNA with CMV-β-gal plasmid) were transfected into the cells (constructs described in Glass, C. K., S. M. Lipkin, O. V. Devary, and M. G. Rosenfeld (1989) Cell 59, 697-708; Glass, C. K., O. V. Devary, and M. G. Rosenfeld (1990) Cell 63, 729-738). The transfected cells from a single cuvette were then split between two 60 mm dishes and treated with 1 mM retinoic acid (Sigma) or the vehicle (0.01% ethanol). […] The cells were harvested 18-25 hours after transfection. Activities are reported per 50 μg protein unless otherwise noted.
Activity of the reporter genes and control constructs was measured by luciferase, CAT, or β-Galactosidase assays. To carry out the luciferase assays, cells were washed twice in PBS, harvested by scraping into PBS and then lysed in 100 μl of Triton lysis buffer (1% Triton X-100, 25 mM glycylclycine, pH 7.8, 15 mM MgSO4, 1 mM dithiothreitol). After centrifugation, 20-50 μl of supernatant cell extract was assayed for luciferase activity as previously described (Braiser, A. R., Tate, J. E., and Habener, J. F. (1989) Biotechniques 7, 1116-1122) using a luminometer (Analytical Luminescence Laboratory Monolight 2001). The assay was linear between 100 (background) and at least 800,000 light units.

calcitonin and CGRP mRNA = details: CA77 cells, retinoic acid treatment, literature; cited from earlier work
[4] = system: H/OB, OB2, HB1 and Oct-1 complexes on CT/CGRP enhancer; assay: Electrophoretic mobility shift assay of CT/CGRP enhancer complexes in CA77 nuclear extracts; format: biochemical, rat; details: nuclear extracts from CA77 cells treated 24 hours with retinoic acid
Method: To perform electrophoretic mobility shift assays, nuclei were harvested from approximately 10^8 cells using a previously described miniextract preparation protocol, with one modification (Lee, K. A. W., and Green, M. R. (1990) Methods Enzymol. 181, 20-25). Instead of dialyzing the extract to remove excess NaCl, the extract was diluted 1:1 with extract buffer lacking NaCl. Aliquots of the diluted extract were stored at -70° C. Annealed oligonucleotide duplexes (10 pmol) containing recessed 3' termini were labeled for use as probes by incorporation of [^32 P]dATP (25 μCi, 3000 Ci/mmol) using Klenow DNA polymerase. Both strands of blunt-ended oligonucleotides (10 pmol) were labeled separately using T4 polynucleotide kinase and [γ-^32 P]ATP (20 μCi, 3000 Ci/mmol), then annealed. Unlabeled oligonucleotides used for competition assays were annealed and then treated with Klenow DNA polymerase if the ends were not already blunt. All probes and competitor DNAs were purified over Sephadex G50 columns.
The binding reaction (20 μl) contained approximately 3 μg (1-2 μl) of nuclear extract, 0.02 pmol of ^32 P-labeled DNA probe (50,000-100,000 cpm), 10 mM Tris-HCl, pH 7.5, 5% glycerol, 50 mM NaCl, 1 mM EDTA, and 1 mM dithiothreitol. Also, 0.1 μg of poly [d(I-C)] […] Unlabeled competitors were preincubated with nuclear extracts 10 minutes on ice prior to addition of probe. […]

CT/CGRP enhancer [5] = assay: CT/CGRP promoter/enhancer reporter gene (luciferase/CAT) transfection assay in 44-2C cells
From the text: (§1) The 44-2C rat medullary thyroid carcinoma cell line was maintained in DMEM (high glucose) with 1% equine serum (HyClone Laboratories, Logan, Utah) and 0.1% L-glutamine; CA77 rat medullary thyroid carcinoma cells in Ham's F-12 medium/DMEM (low glucose)(1:1) with 10% fetal bovine serum (HyClone Laboratories); HeLa human epithelial derived cells in Ham's F-12 medium with 10% fetal bovine serum; and Rat1 fibroblast cells in DMEM (high glucose) with 10% calf serum. Also, 100 units/ml penicillin and 100 μg/ml streptomycin (GIBCO) were added to each culture medium.
(§2) Transfections were carried out by growing cells to approximately 80% confluency, harvesting them by brief trypsin/EDTA treatment, and resuspending them in Ca^2+ /Mg^2+ -free PBS.
In the retinoic acid experiments, the cells were treated essentially as above except that an apparently critical parameter for retinoic acid inhibition was that the CA77 cells could not be aggregated into clumps. To be consistent, all cell types were subcultured by trypsin treatment 1 day prior to the experiment, except for the 44-2C cells, which often required 2 days to firmly attach. About 4-5×10^6 cells in 0.8 ml were transfected with supercoiled DNA by electroporation using a Biorad Gene Pulser apparatus at 200 volts for the CA77 cells, 220 volts for the HeLa cells, and 260 volts for the 44-2C cells, all with a capacitance of 960 microfarads. The same amount of DNA (20 μg) was used per cuvette unless otherwise indicated. For the α-RXR cotransfection assays, 10 μg 18 bp CT/CGRP-TK-luc plasmid, 18 μg RSV-α-RAR plasmid, or 2 μg β-actin-RXR plasmid (brought to 30 μg total DNA with CMV-β-gal plasmid) were transfected into the cells (constructs described in Glass, C. K., S. M. Lipkin, O. V. Devary, and M. G. Rosenfeld (1989) Cell 59, 697-708; Glass, C. K., O. V. Devary, and M. G. Rosenfeld (1990) Cell 63, 729-738). The transfected cells from a single cuvette were then split between two 60 mm dishes and treated with 1 mM retinoic acid (Sigma) or the vehicle (0.01% ethanol). About 50 to 80% cell survival of the electroporation procedure was observed, except the 44-2C cells, in which approximately 25% of the cells were recovered. The cells were harvested 18-25 hours after transfection. Activities are reported per 50 μg protein unless otherwise noted.
Activity of the reporter genes and control constructs was measured by luciferase, CAT, or β-Galactosidase assays.

[6] = system: cytomegalovirus promoter / thymidine kinase promoter; assay: Control reporter genes CMV-luc and TK-luc in CA77 and 44-2C cells; format: cell-based, rat; details: 1 μM retinoic acid
[7] = molecular target: nuclear retinoic acid receptor (RAR); details: literature; read-out: nuclear retinoic acid receptor (RAR) binding affinity Kd; cited from earlier work
CT/CGRP enhancer [8] = assay: CT/CGRP promoter/enhancer luciferase reporter transfection assay in Rat1 fibroblast cells; format: cell-based, rat
From the text: Reporter fusion genes were constructed for experiments to localize cis-active elements responsible for glucocorticoid repression of the CT/CGRP gene.
as §1, §2
Activity of the reporter genes and control constructs was measured by luciferase, CAT, or β-Galactosidase assays. […] After centrifugation, 20-50 μl of supernatant cell extract was assayed for luciferase activity as previously described (Braiser, A. R., Tate, J. E., and Habener, J. F. (1989) Biotechniques 7, 1116-1122) using a luminometer (Analytical Luminescence Laboratory Monolight 2001). […]

Structure (SMILES): CC1=C(/C=C/C(C)=C/C=C/C(C)=C/C(=O)O)C(C)(C)CCC1 [retinoic acid]
- retinoic acid dependent repression with 75 bp and 18 bp fragments (TK-luc) (CT/CGRP enhancer [1]): comparable to the full 205 bp region
- retinoic acid dependent repression with 1039-1125-TK-luc and 920-1038-TK-luc (CT/CGRP enhancer [1]): Neither 1039-1125-TK-luc nor 920-1038-TK-luc exhibited retinoic acid dependent repression
- retinoic acid repression with HLH or Oct mutant constructs (CT/CGRP enhancer [1]): neither the HLH or Oct mutant constructs conferred retinoic acid repression
- maximal repression of 1125 CAL-luc, decrease of control activity (CT/CGRP enhancer [1]; 100 nM retinoic acid): 3 fold
- repression of promoter fragments containing 920 bp or less (CT/CGRP enhancer [1]; 1 μM retinoic acid): not repressed
- decrease in promoter activity of luciferase fusion genes containing 1125 bp or more 5' flanking sequences (CT/CGRP enhancer [1]; 1 μM retinoic acid, 24 hours): 2-3 fold
- repression in CAL1125-luc activity without cotransfected receptor (CT/CGRP enhancer [1]; 1 μM retinoic acid, parallel cultures): 2 fold
- retinoic acid dependent repression in CAL1125-luc activity with cotransfected α-RAR (CT/CGRP enhancer [1]; 1 μM retinoic acid, α-RAR expression vector): 5 fold
- pIC50 (CT/CGRP enhancer [1]; Rattus norvegicus, read-out: amount required for half-maximal repression of 1125 CAL-luc): ~9.70
- effect on 1125-920-TK-luc activity (CT/CGRP enhancer [2]; HeLa cells, 1 μM retinoic acid, also with α-RAR/α-RXR cotransfection): no effect
- fold induction at 1 µM ([3]; read-out: increase in RARE-TK-luc activity, 44-2C cells, 1 μM retinoic acid): 35
- fold induction at 1 µM ([3]; read-out: increase in RARE-TK-luc activity, CA77 cells, 1 μM retinoic acid, no cotransfected receptor): 5
- fold induction at 1 µM ([3]; read-out: retinoic acid dependent stimulation of RARE-TK-luc activity with cotransfected α-RAR, CA77 cells, 1 μM retinoic acid, α-RAR expression vector): 15
- decrease in calcitonin and CGRP mRNA levels (calcitonin and CGRP mRNA): 2-3 fold
- change in OB2, HB1, or Oct-1 complexes [4]: no significant change
- decrease in H/OB complex (densitometric scans) [4]: ~2 fold
- repression of 1125-920-TK-luc activity (CT/CGRP enhancer [5]; 44-2C cells, 1 μM retinoic acid): 2 fold
- effect on TK-luc activity ([6]; 44-2C cells): no effect
- effect on CMV-luc and TK-luc ([6]; CA77 cells): not significantly affected
- pKd [7]: 9.70

- pIC50 (CT/CGRP enhancer [1]; Rattus norvegicus, 1125 CAL-luc, read-out: half-maximal repression of CT/CGRP promoter activity): 6.52
Structure (SMILES): CC1=C(/C=C/C(C)=C/C=C/C(C)=C/C=O)C(C)(C)CCC1 [Retinal, retinal]
- minimal effective concentration (CT/CGRP enhancer [1]; Rattus norvegicus, 1125 CAL-luc, read-out: concentrations at which CT/CGRP promoter activity was repressed): ≥ 0.1 µM

Structure (SMILES): C[C@@H]1C[C@H]2[C@@H]3CCC4=CC(=O)C=C[C@]4(C)[C@@]3(F)[C@@H](O)C[C@]2(C)[C@@]1(O)C(=O)CO [dexamethasone]
- repression of calcitonin/CGRP promoter fusion genes containing the -920-1125-bp element (CT/CGRP enhancer [1]; dexamethasone treatment): did not repress
- repression with smaller elements that include the 18-bp region (TK-LUC) (CT/CGRP enhancer [1]; p<0.01): 1.6 fold
- repression of activity of the -920-1125-bp region (TK-LUC) (CT/CGRP enhancer [1]; p<0.05): 1.2 fold
- repression of activity of the -920-1125 enhancer (CT/CGRP enhancer [2]; HeLa cells): did not repress
- stimulation of reporter activity of all plasmids including TK-LUC (CT/CGRP enhancer [2]; non-neuroendocrine cells): 1.5-2 fold
- repression of -920-1125 TK-LUC fusion gene expression (CT/CGRP enhancer [5]; 44-2C cells, 500 nM dexamethasone): 2.5-3 fold
- repression of promoter activity of fusion genes containing at least 1125 bp of upstream sequences (CT/CGRP enhancer [5]; 44-2C cells, 500 nM dexamethasone, 24 h): 2.5-4.5 fold
- repression of -920-1125 TK-LUC fusion gene expression, in a few experiments (CT/CGRP enhancer [5]; 44-2C cells, 500 nM dexamethasone, a few experiments): ≤ 10 fold
- effect on gene activity from the shorter constructs (CT/CGRP enhancer [5]; 44-2C cells, 500 nM dexamethasone, constructs lacking -920-1125 region): slightly stimulated
- repression with -1091-1017 and -1043-1025 elements (TK-LUC) (CT/CGRP enhancer [5]; 44-2C cells, dexamethasone): 24 fold
- repression of -920-1125-TK-LUC promoter activity in dose response (CT/CGRP enhancer [5]; 44-2C cells, dexamethasone concentrations above 50 nM, 24 h): approximately 10 fold
- pIC50 (CT/CGRP enhancer [5]; Rattus norvegicus, 24 h, read-out: dexamethasone concentration for half-maximal inhibition of -920-1125-TK-LUC): 8.60
- repression of activity of the -920-1125 enhancer (CT/CGRP enhancer [8]): did not repress
